Converted amounts (≈) assume the structure as drawn.
Tested on: wildtype E. coli growth inhibition, MIC
Assay: minimum inhibitory concentration in E. coli – MIC, dose response, counter-screen for IMP-1/VIM-2 inhibitor project, late-stage follow-up (AID 449774)

Row | SMILES | MIC [µM]
1 | O=C(O)c1ccc[c]([Hg+])c1 | 3.13
2 | C[C@@H](O)[C@H]1C(=O)N2C(C(=O)O)=C(SCCN=CN)C[C@H]12 | 0.78 (≈ 0.233 µg/mL)
3 | COc1cccc[c]1[Hg+] | 0.78
4 | O=C(O)c1cc[c]([Hg][Cl])cc1 | 12.5
5 | CC(=O)Nc1cc[c]([Hg+])cc1 | 1.56
6 | [Hg+][c]1ccccc1 | 0.39
7 | Cc1cc[c]([Hg+])cc1 | 1.56

Source: PubChem BioAssay AID449774 (The Scripps Research Institute Molecular Screening Center, 2010)
